What all share (format): functional
Experiment [1] concerns Escherichia coli. Description: Antimicrobial activity against Escherichia coli ATCC […] carrying Edwardsiella ictaluri pM07-1 by microdilution assay.
Experiment [2] deals with Escherichia coli. Description: Antimicrobial activity against Escherichia coli ATCC […] by microdilution assay. (In broth dilution the organism is exposed to a series of concentrations in liquid medium.)
Experiment [3] deals with Edwardsiella ictaluri. Description: Antimicrobial activity against florfenicol-resistant Edwardsiella ictaluri M07-1 by microdilution assay.
Experiment [4] relates to Edwardsiella ictaluri. Description: Fold resistance, ratio of MIC for florfenicol-resistance Edwardsiella ictaluri M07-1 to MIC for florfenicol-susceptible Edwardsiella ictaluri.

The values below come from ChEMBL document CHEMBL1629617, “IncA/C plasmid-mediated florfenicol resistance in the catfish pathogen Edwardsiella ictaluri” (2009).

In brackets after ≈: the same amount, converted by molar mass. A value given as a limit tells only on which side of the number the result lay.

Take `CO/N=C(\C(=O)N[C@@H]1C(=O)N2C(C(=O)O)=C(CSC(=O)c3ccco3)CS[C@H]12)c1csc(N)n1` [CEFTIOFUR]: the minimum inhibitory concentration (MIC) (usually the lowest concentration that inhibits growth of the organism) with Escherichia coli [1] is more than 8 µg/mL; against Escherichia coli [2], 0.5 µg/mL (≈ 0.955 µM); in the experiment on Edwardsiella ictaluri [3] it was 8 µg/mL (≈ 15.3 µM).

Consider `CC1(C)S[C@@H]2[C@H](NC(=O)[C@H](N)c3ccccc3)C(=O)N2[C@H]1C(=O)O` [AMPICILLIN], for which the results for the MIC in the experiment with Escherichia coli [1], against Escherichia coli [2] and in the experiment with Edwardsiella ictaluri [3] were more than 32 µg/mL, 4 µg/mL (≈ 11.4 µM) and more than 32 µg/mL, respectively.

With `O=C(N[C@H](CO)[C@H](O)c1ccc([N+](=O)[O-])cc1)C(Cl)Cl` [CHLORAMPHENICOL], the MIC against Escherichia coli [1] is more than 32 µg/mL; in the experiment on Escherichia coli [2], 4 µg/mL (≈ 12.4 µM); with Edwardsiella ictaluri [3], more than 32 µg/mL.

Regarding `Cc1cc(NS(=O)(=O)c2ccc(N)cc2)no1` [SULFAMETHOXAZOLE], the MIC against Escherichia coli [1] was determined as 19 µg/mL (≈ 75 µM); against Escherichia coli [2], 2.4 µg/mL (≈ 9.48 µM); in the experiment on Edwardsiella ictaluri [3], 19 µg/mL (≈ 75 µM).

Regarding `O=C(O)[C@H]1/C(=C/CO)O[C@@H]2CC(=O)N21` [CLAVULANIC ACID], the MIC was 16 µg/mL (≈ 80.3 µM) in the experiment on Escherichia coli [1], 2 µg/mL (≈ 10 µM) with Escherichia coli [2] and 16 µg/mL (≈ 80.3 µM) against Edwardsiella ictaluri [3].

Take `CN[C@@H]1[C@H](O[C@H]2[C@H](O[C@H]3[C@H](O)[C@@H](O)[C@H](N=C(N)N)[C@@H](O)[C@@H]3N=C(N)N)O[C@@H](C)[C@]2(O)C=O)O[C@@H](CO)[C@H](O)[C@H]1O` [STREPTOMYCIN]: the MIC in the experiment on Escherichia coli [1] is more than 64 µg/mL; against Escherichia coli [2], less than 32 µg/mL; against Edwardsiella ictaluri [3] it was more than 64 µg/mL.

On to `COc1cc(Cc2cnc(N)nc2N)cc(OC)c1OC` [TRIMETHOPRIM], for which the minimal inhibitory concentration (MIC) in the experiment on Escherichia coli [1] was 1 µg/mL (≈ 3.44 µM); with Escherichia coli [2] it was 0.1 µg/mL (≈ 0.344 µM); against Edwardsiella ictaluri [3], 1 µg/mL (≈ 3.44 µM).

Consider `CO[C@@]1(NC(=O)Cc2cccs2)C(=O)N2C(C(=O)O)=C(COC(N)=O)CS[C@@H]21` [CEFOXITIN], for which the MIC in the experiment on Escherichia coli [1] was more than 32 µg/mL; in the experiment with Escherichia coli [2], 4 µg/mL (≈ 9.36 µM); against Edwardsiella ictaluri [3], more than 32 µg/mL.

On to `CC1(C)S[C@@H]2[C@H](NC(=O)[C@H](N)c3ccc(O)cc3)C(=O)N2[C@H]1C(=O)O` [AMOXICILLIN], for which the MIC with Escherichia coli [1] was more than 32 µg/mL; in the experiment on Escherichia coli [2], 4 µg/mL (≈ 10.9 µM); in the experiment on Edwardsiella ictaluri [3], more than 32 µg/mL.

In the case of `CO/N=C(\C(=O)N[C@@H]1C(=O)N2C(C(=O)O)=C(CSc3nc(=O)c(O)nn3C)CS[C@H]12)c1csc(N)n1` [CEFTRIAXONE], the MIC in the experiment on Escherichia coli [1] was 32 µg/mL (≈ 57.7 µM); in the experiment with Escherichia coli [2] it was less than 0.25 µg/mL; against Edwardsiella ictaluri [3], 32 µg/mL (≈ 57.7 µM).

With `CN(C)[C@@H]1C(O)=C(C(N)=O)C(=O)[C@@]2(O)C(O)=C3C(=O)c4c(O)cccc4[C@@](C)(O)[C@H]3C[C@@H]12` [TETRACYCLINE], the figures for the MIC in the experiment on Escherichia coli [1], against Escherichia coli [2] and against Edwardsiella ictaluri [3] were 32 µg/mL (≈ 72 µM), 4 µg/mL (≈ 9 µM) and 32 µg/mL (≈ 72 µM), respectively.

With `CS(=O)(=O)c1ccc([C@@H](O)[C@@H](CF)NC(=O)C(Cl)Cl)cc1` [FLORFENICOL], the minimum inhibitory concentration (MIC) in the experiment with Escherichia coli [1] was 256 µg/mL (≈ 715 µM); against Escherichia coli [2], 4 µg/mL (≈ 11.2 µM); against Edwardsiella ictaluri [3], 128 µg/mL (≈ 357 µM). The Ratio with Edwardsiella ictaluri [4] is 500.
